# Source: ChEMBL document CHEMBL5137094, “Construction of Covalent Bisubstrate Inhibitor of Protein Kinase Reacting with Cysteine Residue at Substrate-Binding Site” (J Med Chem, 2022)
# Calls of active or inactive are those of the source. The rule behind the calls is not given here.
# How the values were obtained:
# [1] = target: T1, cAMP-dependent protein kinase catalytic subunit alpha (Homo sapiens, UniProt P17612); experiment: Irreversible inhibition of ARC-1063 fluorescent probe binding to recombinant human PKAC-alpha incubated for 22 hrs followed by probe addition at 20 nM and further incubated for 1 hr by time-gated luminescence intensity based displacement assay
# [2] = target: T1, cAMP-dependent protein kinase catalytic subunit alpha; experiment: Inhibition of ARC-1063 fluorescent probe binding to recombinant human PKAC-alpha incubated for 22 hrs by time-gated luminescence intensity based displacement assay
# [3] = target: T1, cAMP-dependent protein kinase catalytic subunit alpha; experiment: Inhibition of ARC-1063 fluorescent probe binding to recombinant human PKAC-alpha incubated for 1 hr by time-gated luminescence intensity based displacement assay
# [4] = target: T1, cAMP-dependent protein kinase catalytic subunit alpha; experiment: Binding affinity to human recombinant PKAC-alpha assessed as inactivation constant incubated for 1 hr by time-gated luminescence intensity based displacement assay
# [5] = target: T1, cAMP-dependent protein kinase catalytic subunit alpha; experiment: Binding affinity to human recombinant PKACalpha assessed as compound-protein adduct formation by measuring half life at 30 degreeC
# [6] = target: T1, cAMP-dependent protein kinase catalytic subunit alpha; experiment: Binding affinity to human recombinant PKAC-alpha assessed as reduction in TGLI signal at 10 uM pretreated with compound followed by ARC-1063 fluorescent probe addition by time-gated luminescence intensity based displacement assay; settings: time 60-480 min, TDE = time-dependent effect
# [7] = target: T1, cAMP-dependent protein kinase catalytic subunit alpha; experiment: Displacement of ARC-1063 fluorescent probe from recombinant human PKAC-alpha assessed as dissociation half life preincubated for 1 hr followed by photoluminescent probe addition by time-gated luminescence intensity based assay
# [8] = target: T1, cAMP-dependent protein kinase catalytic subunit alpha; experiment: Covalent inhibition of human recombinant PKAC-alpha assessed as inhibition constant
# [9] = target: T1, cAMP-dependent protein kinase catalytic subunit alpha; experiment: Binding affinity to human recombinant PKAC-alpha assessed as inactivation constant measured upto 60 mins by Western blot analysis
# [10] = Drug degradation in phosphate buffer at pH 7.4 assessed as half life at 0.15 mM at 37 degreeC measured for 30 to 60 mins by HPLC-MS analysis; type: ADME; settings: time 30-60 min
# [11] = target: T1, cAMP-dependent protein kinase catalytic subunit alpha; experiment: Binding affinity to human recombinant PKAC-alpha at Cys199 residue assessed as compound-protein adduct formation by measuring mass difference at 3.5 uM incubated for 2 hrs by LC-MS/MS analysis
# [12] = GSH reactivity in potassium phosphate buffer at pH 7.4 assessed as half life at 0.15 mM at 30 degreeC measured for 30 to 60 mins by HPLC-MS analysis; type: physicochemical; settings: potassium phosphate buffer with GSH, time 30-60 min
# [13] = GSH reactivity in potassium phosphate buffer at pH 7.4 assessed as half life at 0.15 mM at 37 degreeC measured for 30 to 60 mins by HPLC-MS analysis; type: physicochemical; settings: potassium phosphate buffer with GSH, time 30-60 min
# [14] = Drug degradation in phosphate buffer at pH 7.4 assessed as half life at 0.15 mM at 30 degreeC measured for 30 to 60 mins by HPLC-MS analysis; type: ADME; settings: time 30-60 min
smiles,measurement,setting,value
N=C(N)NCCC[C@@H](NC(=O)CCCCCNC(=O)[C@@H](CCCNC(=N)N)NC(=O)CCCCCCCC(=O)N1CCN(c2ncnc3[nH]ccc23)CC1)C(N)=O,IC50,[1],5300 nM
same,IC50,[2],500 nM
same,IC50,[3],400 nM
CC[C@H](C)[C@H](NC(=O)CCC(=O)N[C@@H](CCCCNC(=O)[C@@H](CCCNC(=N)N)NC(=O)CCCCCCCC(=O)N1CCN(c2ncnc3[nH]ccc23)CC1)C(=O)N[C@H](CCCNC(=N)N)C(N)=O)C(=O)NCC(=O)CF,Kinact,[4],7.7 10^-5/s
same,IC50,[1],800 nM
same,IC50,[2],500 nM
same,T1/2,[5],151 min
same,Activity,[6],Tde
same,IC50,[3],1200 nM
same,T1/2,[7],> 150 min
same,Ki,[8],0.63 nM
CC[C@H](C)[C@H](NC(=O)CCC(=O)N[C@@H](CCCCNC(=O)[C@@H](CCCNC(=N)N)NC(=O)CCCCCCCC(=O)N1CCN(c2ncnc3[nH]ccc23)CC1)C(=O)N[C@H](CCCNC(=N)N)C(=O)N[C@H](CCCNC(=N)N)C(=O)N[C@H](CCCNC(=N)N)C(N)=O)C(=O)NCC(=O)CF,Kinact,[4],5.1 10^-4/s
same,Kinact,[9],4.2 10^-4/s
same,Activity,[6],Tde
same,Ki,[8],0.0068 nM
CC[C@H](C)[C@H](NC(=O)CCC(=O)N[C@@H](CCCCNC(=O)[C@@H](CCCNC(=N)N)NC(=O)CCCCCCCC(=O)N1CCN(c2ncnc3[nH]ccc23)CC1)C(=O)N[C@H](CCCNC(=N)N)C(=O)N[C@H](CCCNC(=N)N)C(N)=O)C(=O)NCC(=O)CF,half-life at 150 µM,[10],57 min
same,Kinact,[4],6.1 10^-4/s
same,Activity,[11],Active
same,T1/2,[5],19.2 min
same,Kinact,[9],5.8 10^-4/s
same,Activity,[6],Tde
same,T1/2,[7],19 min
same,Ki,[8],0.023 nM
same,half-life at 150 µM,[12],44.4 min
same,half-life at 150 µM,[13],22.2 min
same,half-life at 150 µM,[14],78.6 min
NC(=O)CF [MONOFLUOROACETAMIDE],half-life at 150 µM,[13],> 4200 min
